Our source for the GI50 and TGI values is PubChem BioAssay (NCI).

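Values below derive from 48-hour exposures of cells grown in 96-well plates, with endpoints linearly interpolated between the two concentrations bracketing the appropriate inhibition level. Abbreviation: GI50, concentration required for 50% inhibition of growth. At the TGI there is no net growth.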

Among the test systems are OVCAR-4 ovarian; ACHN renal; OVCAR-8 ovarian; MOLT-4 leukemia; 786-0 renal; HOP-92 NSCLC; NCI-H23 lung; HCT-15 colon; MALME-3M melanoma; K-562 leukemia.
Experiment in all cases: DTP human tumour cell line panel, 48 h

In the case of `COc1cccc(C2C(C#N)=C(N)Oc3cc(N)ccc32)c1` (centres undefined), the GI50 in the experiment with OVCAR-4 ovarian was 5.14 µM; with ACHN renal it was 0.762 µM; in the experiment on OVCAR-8 ovarian, 0.649 µM; in the experiment with MOLT-4 leukemia it was 0.563 µM; with 786-0 renal it was 0.632 µM; in the experiment with HOP-92 NSCLC, 0.31 µM. Besides, the GI50 in the experiment with NCI-H23 lung was 0.571 µM; with HCT-15 colon it was 0.385 µM; in the experiment with MALME-3M melanoma it was 0.632 µM; with K-562 leukemia, 0.396 µM. Moreover, the TGI in the experiment with OVCAR-4 ovarian was more than 100 µM; with ACHN renal it was more than 100 µM; with OVCAR-8 ovarian, more than 60.9 µM; with MOLT-4 leukemia, more than 52.3 µM; with 786-0 renal it was more than 100 µM; in the experiment with HOP-92 NSCLC, 58.3 µM. Moreover, the TGI in the experiment on NCI-H23 lung, with HCT-15 colon, in the experiment on MALME-3M melanoma and with K-562 leukemia was more than 100 µM in each case.
As to `CCC[CH2][Sn]([CH2]CCC)([O]C(=O)c1cc(F)cc(F)c1)[O]C(=O)c1cc(F)cc(F)c1`, the GI50 in the experiment with OVCAR-4 ovarian is 1.6 µM; in the experiment with ACHN renal, 1.33 µM; with OVCAR-8 ovarian it was 1.39 µM; with MOLT-4 leukemia, 0.282 µM; in the experiment on 786-0 renal it was 1.25 µM; in the experiment with HOP-92 NSCLC, 1.24 µM. Further, the GI50 in the experiment with NCI-H23 lung is 0.7 µM; in the experiment with HCT-15 colon, 1.17 µM; in the experiment with MALME-3M melanoma it was 0.508 µM; in the experiment with K-562 leukemia it was 0.228 µM. Further, the TGI in the experiment on OVCAR-4 ovarian came out at 3.01 µM; with ACHN renal, 2.61 µM; in the experiment on OVCAR-8 ovarian, 2.68 µM; with MOLT-4 leukemia, 1.73 µM; in the experiment on 786-0 renal, 2.49 µM; in the experiment on HOP-92 NSCLC it was 2.49 µM. Moreover, the TGI in the experiment with NCI-H23 lung turned out to be 2 µM; with HCT-15 colon it was 2.41 µM; in the experiment on MALME-3M melanoma, 1.75 µM; with K-562 leukemia it was 0.965 µM.
`CC(C)CCOc1ccc(-c2n[nH]c(C(F)(F)F)c2-c2cncc(C#N)c2)c(O)c1`: the GI50 was 3.48 µM in the experiment with OVCAR-4 ovarian; 2.54 µM in the experiment on ACHN renal; 2.78 µM in the experiment on OVCAR-8 ovarian; 2.47 µM in the experiment on MOLT-4 leukemia; 2.96 µM with 786-0 renal; 0.519 µM with HOP-92 NSCLC. The GI50 was 1.77 µM in the experiment with NCI-H23 lung, 2.4 µM in the experiment on HCT-15 colon, 1.85 µM with MALME-3M melanoma and 1.87 µM in the experiment on K-562 leukemia. Further, the TGI with OVCAR-4 ovarian is more than 100 µM; with ACHN renal, 9.02 µM; in the experiment on OVCAR-8 ovarian it was 19.1 µM; in the experiment on MOLT-4 leukemia it was 12.7 µM; in the experiment with 786-0 renal it was 13.1 µM; with HOP-92 NSCLC it was 3.33 µM. In addition, the TGI in the experiment on NCI-H23 lung is 7.59 µM; with HCT-15 colon, 13.4 µM; with MALME-3M melanoma, 6.56 µM; with K-562 leukemia, more than 100 µM.
Take `O=C(O)C1C(C(=O)Nc2ccc3c(c2)Cc2ccccc2-3)C2(Cl)C(Cl)=C(Cl)C1(Cl)C2(Cl)Cl` (centres undefined): the concentration for total growth inhibition (TGI) with OVCAR-4 ovarian was more than 100 µM; in the experiment with ACHN renal it was more than 100 µM; with OVCAR-8 ovarian it was 43 µM; with MOLT-4 leukemia, 26.1 µM; with 786-0 renal, more than 100 µM; in the experiment with HOP-92 NSCLC, 57.3 µM. The total growth inhibition concentration (TGI) in the experiment on NCI-H23 lung turned out to be 31.3 µM; with HCT-15 colon, 48.5 µM; in the experiment on MALME-3M melanoma it was 44.6 µM; in the experiment on K-562 leukemia, 13.5 µM.
`ClC1=C(Cl)C(Cl)=C(Cl)C1=C/C=C/c1ccccc1`: the GI50 with OVCAR-4 ovarian is 0.337 µM; with ACHN renal, 0.318 µM; in the experiment on OVCAR-8 ovarian, 0.266 µM; in the experiment with MOLT-4 leukemia, 0.335 µM; with 786-0 renal it was 0.444 µM; with HOP-92 NSCLC, 0.165 µM. Further, the GI50 was 0.257 µM in the experiment on NCI-H23 lung, 0.179 µM in the experiment with HCT-15 colon, 0.167 µM in the experiment with MALME-3M melanoma and 0.439 µM in the experiment with K-562 leukemia. Also, the TGI worked out at 19.8 µM in the experiment on OVCAR-4 ovarian; 0.855 µM with ACHN renal; 1.92 µM in the experiment on OVCAR-8 ovarian; 2.05 µM in the experiment on 786-0 renal; 0.491 µM in the experiment with HOP-92 NSCLC; 1.14 µM in the experiment on NCI-H23 lung. Besides, the total growth inhibition concentration (TGI) was 0.391 µM with HCT-15 colon, 0.499 µM in the experiment on MALME-3M melanoma and more than 100 µM in the experiment on K-562 leukemia.
Regarding `Cc1ccc(-c2nc(SCC(=O)O)n[nH]2)cc1`, the concentration for total growth inhibition (TGI) in the experiment on OVCAR-4 ovarian, in the experiment with ACHN renal, in the experiment on OVCAR-8 ovarian, in the experiment on MOLT-4 leukemia, in the experiment with 786-0 renal and with HOP-92 NSCLC was more than 100 µM throughout. The TGI in the experiment with NCI-H23 lung, with HCT-15 colon, with MALME-3M melanoma and with K-562 leukemia was more than 100 µM each time.
Take `CC(=O)C1CC=C(C)CC1` (centres undefined): the concentration for total growth inhibition (TGI) in the experiment on OVCAR-4 ovarian, with ACHN renal, in the experiment with OVCAR-8 ovarian, in the experiment on MOLT-4 leukemia, in the experiment with 786-0 renal and with HOP-92 NSCLC was more than 100 µM in each case. Besides, the TGI in the experiment on NCI-H23 lung, with HCT-15 colon, in the experiment with MALME-3M melanoma and with K-562 leukemia was more than 100 µM throughout.
For the compound `COc1ccc(C2=NNC(=O)OC2c2ccccc2)cc1` (centres undefined), the TGI with OVCAR-4 ovarian, with ACHN renal, with OVCAR-8 ovarian, with MOLT-4 leukemia, in the experiment with 786-0 renal and with HOP-92 NSCLC was more than 100 µM each time. In addition, the concentration for total growth inhibition (TGI) with NCI-H23 lung, in the experiment on HCT-15 colon, in the experiment on MALME-3M melanoma and in the experiment on K-562 leukemia was more than 100 µM each time.
In the case of `NC(CSC(c1ccccc1)(c1ccccc1)c1ccc(Cl)cc1)C(=O)O` (centres undefined), the GI50 was 11.1 µM with OVCAR-4 ovarian; 2.6 µM in the experiment on ACHN renal; 0.412 µM in the experiment with OVCAR-8 ovarian; 1.66 µM with MOLT-4 leukemia; 1.36 µM in the experiment with 786-0 renal; 1.4 µM with HOP-92 NSCLC. The GI50 was 0.487 µM in the experiment on NCI-H23 lung, 0.362 µM with HCT-15 colon, 1.97 µM with MALME-3M melanoma and 0.209 µM with K-562 leukemia. The TGI in the experiment on OVCAR-4 ovarian is more than 100 µM; in the experiment with ACHN renal, more than 78.4 µM; in the experiment on OVCAR-8 ovarian it was 44.8 µM; in the experiment with MOLT-4 leukemia, 53.3 µM; in the experiment on 786-0 renal, 30 µM; in the experiment with HOP-92 NSCLC, 39.3 µM. In addition, the TGI in the experiment with NCI-H23 lung was 41.9 µM; in the experiment on HCT-15 colon, 52.9 µM; with MALME-3M melanoma, 39.6 µM; with K-562 leukemia, more than 57.6 µM.
